Where two headings read alike, the source gives them in different places.
Biological target: GABAA receptor (rat brain cortical membranes, [35S]-TBPS binding)
Details: rat brain cortical membranes, 3 nM [35S]-TBPS, in the presence of 5 mM GABA

Compound: CNC[C@H]1CCC[C@H]2[C@@H]3CC[C@@H]4C[C@](C)(O)CC[C@@H]4[C@H]3CC[C@]12C [I-C5, (2R,4aS,4bR,6aS,7S,10aS,10bR,12aR)-2,6a-dimethyl-7-((methylamino)methyl)octadecahydrochrysen-2-ol]
- IC50 (Table I-4): 1 to 10 µM

Compound: CC(=O)[C@H]1C[C@H]2[C@@H]3CC[C@@H]4C[C@](C)(O)CC[C@]4(C)[C@H]3CC[C@]12C [Compound I-103, 1-((1S,2aS,2bR,4aR,6R,8aS,8bS,10aS)-6-hydroxy-6,8a,10a-trimethylhexadecahydrocyclobuta[a]phenanthren-1-yl)ethan-1-one]
- IC50 (Table I-5): 0.1 to 1 µM

Compound: COC[C@@]1(O)CC[C@H]2[C@@H](CC[C@@H]3[C@@H]2CC[C@]2(C)[C@@H](C(=O)Nc4ccccc4)CCC[C@@H]32)C1 [Compound I-27, (1S,4aS,4bR,6aS,8R,10aS,10bR,12aS)-8-hydroxy-8-(methoxymethyl)-12a-methyl-N-phenyloctadecahydrochrysene-1-carboxamide]
- IC50 (Table I-4): 0.01 to 0.1 µM

Compound: C[C@@]1(O)CC[C@H]2[C@H](CC[C@@H]3[C@@H]2CC[C@]2(C)[C@H](CO)C[C@@H]32)C1 [I-AB1a, (1R,2aS,2bR,4aR,6R,8aS,8bR,10aS)-1-(hydroxymethyl)-6,10a-dimethylhexadecahydrocyclobuta[a]phenanthren-6-ol]
- IC50 (Table I-5): 1 to 10 µM

Compound: C[C@@]1(O)CC[C@H]2[C@H](CC[C@@H]3[C@@H]2CC[C@]2(C)[C@H](C(=O)Cn4cc(C#N)cn4)C[C@@H]32)C1 [Compound I-105, 1-(2-((1R,2aS,2bR,4aR,6R,8aS,8bR,10aS)-6-hydroxy-6,10a-dimethylhexadecahydrocyclobuta[a]phenanthren-1-yl)-2-oxoethyl)-1H-pyrazole-4-carbonitrile]
- IC50 (Table I-5): 1 to 10 µM

Compound: CC(=O)[C@@H]1CCC[C@H]2[C@@H]3CC[C@@H]4C[C@](C)(O)CC[C@@H]4[C@H]3CC[C@]2(C)C1 [I-BC14b]
- IC50 (Table I-6): 1 to 10 µM

Compound: C[C@@]1(O)CC[C@H]2[C@H](CC[C@@H]3[C@@H]2CC[C@]2(C)[C@@H](C(=O)Nc4ccccc4)CCCC[C@@H]32)C1 [I-BA17, (2R,4aS,4bR,6aS,7S,11aS,11bR,13aR)-2-hydroxy-2,6a-dimethyl-N-phenyloctadecahydro-1H-cyclohepta[a]phenanthrene-7-carboxamide]
- IC50 (Table I-6): 0.01 to 0.1 µM

Compound: C[C@H]1CCCCN1C(=O)[C@H]1CCC[C@H]2[C@@H]3CC[C@@H]4C[C@](C)(O)CC[C@@H]4[C@H]3CC[C@]12C [I-E4, ((1S,4aS,4bR,6aR,8R,10aS,10bR,12aS)-8-hydroxy-8,12a-dimethyloctadecahydrochrysen-1-yl)((S)-2-methylpiperidin-1-yl)methanone]
- IC50 (Table I-4): 0.1 to 1 µM

Compound: C[C@@]1(O)CC[C@H]2[C@H](CC[C@@H]3[C@@H]2CC[C@]2(C)[C@H](C(=O)Nc4ccccc4)C[C@@H]32)C1 [I-AA6a, (1R,2aS,2bR,4aR,6R,8aS,8bR,10aS)-6-hydroxy-6,10a-dimethyl-N-phenylhexadecahydrocyclobuta[a]phenanthrene-1-carboxamide]
- IC50 (Table I-5): 1 to 10 µM

Compound: COC[C@@]1(O)CC[C@H]2[C@H](CC[C@@H]3[C@@H]2CC[C@]2(C)[C@@H](C(=O)Nc4ccccc4)C[C@@H]32)C1 [I-AC8, (1S,2aS,2bR,4aR,6R,8aS,8bR,10aS)-6-hydroxy-6-(methoxymethyl)-10a-methyl-N-phenylhexadecahydrocyclobuta[a]phenanthrene-1-carboxamide]
- IC50 (Table I-5): 1 to 10 µM

Compound: C[C@@]1(O)CC[C@H]2[C@H](CC[C@@H]3[C@@H]2CC[C@]2(C)C[C@@H](C(=O)c4ccccc4)CC[C@@H]32)C1 [I-R21, ((2S,4aS,4bR,6aR,8R,10aS,10bR,12aR)-8-hydroxy-8,12a-dimethyloctadecahydrochrysen-2-yl)(phenyl)methanone]
- IC50 (Table I-4): 0.1 to 1 µM

Compound: C[C@@]1(O)CC[C@H]2[C@H](CC[C@@H]3[C@@H]2CC[C@]2(C)[C@@H](CNC(=O)c4ccccc4)CCC[C@@H]32)C1 [I-C4, N-(((1S,4aS,4bR,6aR,8R,10aS,10bR,12aS)-8-hydroxy-8,12a-dimethyloctadecahydrochrysen-1-yl)methyl)benzamide]
- IC50 (Table I-4): 0.1 to 1 µM

Compound: COC[C@H]1CCCC[C@H]2[C@@H]3CC[C@@H]4C[C@](C)(O)CC[C@@H]4[C@H]3CC[C@]12C [I-BA6, (2R,4aS,4bR,6aS,7S,11aS,11bR,13aR)-7-(methoxymethyl)-2,6a-dimethyloctadecahydro-1H-cyclohepta[a]phenanthren-2-ol]
- IC50 (Table I-6): 0.1 to 1 µM

Compound: CC(=O)[C@@H]1C[C@H]2[C@@H]3CC[C@@H]4C[C@](C)(O)CC[C@]4(C)[C@H]3CC[C@]12C [Compound I-103a, 1-((1R,2aS,2bR,4aR,6R,8aS,8bS,10aS)-6-hydroxy-6,8a,10a-trimethylhexadecahydrocyclobuta[a]phenanthren-1-yl)ethan-1-one]
- IC50 (Table I-5): 1 to 10 µM

Compound: CC(=O)[C@H]1CCC[C@H]2[C@@H]3CC[C@H]4C[C@](C)(O)CC[C@]4(C)[C@H]3CC[C@]12C [I-K2, 1-((1S,4aS,4bR,6aS,8R,10aS,10bS,12aS)-8-hydroxy-8,10a,12a-trimethyloctadecahydrochrysen-1-yl)ethan-1-one]
- IC50 (Table I-4): 0.01 to 0.1 µM

Compound: CC(=O)[C@H]1CCC[C@H]2[C@@H]3CC[C@@H]4C[C@](C)(O)CC[C@@H]4[C@H]3CC[C@]2(C)C1 [I-BC14a, 1-((2R,4aS,4bR,6aR,8S,11aS,11bR,13aR)-2-hydroxy-2,6a-dimethyloctadecahydro-1H-cyclohepta[a]phenanthren-8-yl)ethan-1-one]
- IC50 (Table I-6): 0.1 to 1 µM

Compound: C[C@@]1(O)CC[C@H]2[C@H](CC[C@@H]3[C@@H]2CC[C@]2(C)[C@@H](CO)CCCC[C@@H]32)C1 [I-BA5b, (2R,4aS,4bR,6aS,7S,11aS,11bR,13aR)-7-(hydroxymethyl)-2,6a-dimethyloctadecahydro-1H-cyclohepta[a]phenanthren-2-ol]
- IC50 (Table I-6): 0.1 to 1 µM

Compound: C[C@@]1(O)CC[C@H]2[C@H](CC[C@@H]3[C@@H]2CC[C@]2(C)C[C@H](C(=O)Nc4ccccc4)CCC[C@@H]32)C1 [I-BC11a]
- IC50 (Table I-6): 1 to 10 µM

Compound: C[C@@]1(O)CC[C@H]2[C@H](CC[C@@H]3[C@@H]2CC[C@]2(C)[C@@H](Nc4ccc(C#N)cc4)CCC[C@@H]32)C1 [Compound I-7, 4-(((1S,4aS,4bR,6aR,8R,10aS,10bR,12aS)-8-hydroxy-8,12a-dimethyloctadecahydrochrysen-1-yl)amino)benzonitrile]
- IC50 (Table I-4): 0.01 to 0.1 µM

Compound: C[C@@]1(O)CC[C@@]2(C)[C@H](CC[C@@H]3[C@@H]2CC[C@]2(C)[C@@H](C(=O)Cn4cc(C#N)cn4)C[C@@H]32)C1 [Compound I-106, 1-(2-((1S,2aS,2bR,4aR,6R,8aS,8bS,10aS)-6-hydroxy-6,8a,10a-trimethylhexadecahydrocyclobuta[a]phenanthren-1-yl)-2-oxoethyl)-1H-pyrazole-4-carbonitrile]
- IC50 (Table I-5): 0.1 to 1 µM

Compound: C[C@@]1(O)CC[C@H]2[C@H](CC[C@@H]3[C@@H]2CC[C@]2(C)[C@@H](CO)C[C@@H]32)C1 [I-AB1, (1S,2aS,2bR,4aR,6R,8aS,8bR,10aS)-1-(hydroxymethyl)-6,10a-dimethylhexadecahydrocyclobutaialphenanthren-6-ol]
- IC50 (Table I-5): 1 to 10 µM

Compound: C[C@@]1(O)CC[C@H]2[C@H](CC[C@@H]3[C@@H]2CC[C@]2(C)[C@@H](C(=O)Nc4ccccc4)C[C@@H]32)C1 [I-AA6, (1S,2aS,2bR,4aR,6R,8aS,8bR,10aS)-6-hydroxy-6,10a-dimethyl-N-phenylhexadecahydrocyclobuta[a]phenanthrene-1-carboxamide]
- IC50 (Table I-5): 1 to 10 µM

Compound: C[C@@]1(O)CC[C@H]2[C@H](CC[C@@H]3[C@@H]2CC[C@]2(C)[C@@H](C(=O)Cn4ccnn4)C[C@@H]32)C1 [I-AA12, 1-((1S,2aS,2bR,4aR,6R,8aS,8bR,10aS)-6-hydroxy-6,10a-dimethylhexadecahydrocyclobuta[a]phenanthren-1-yl)-2-(1H-1,2,3-triazol-1-yl)ethan-1-one]
- IC50 (Table I-5): 1 to 10 µM

Compound: C[C@@]1(O)CC[C@H]2[C@H](CC[C@@H]3[C@@H]2CC[C@]2(C)[C@@H](C(=O)Nc4ccccc4)CCC[C@@H]32)C1 [Compound I-15, (1S,4aS,4bR,6aR,8R,10aS,10bR,12aS)-8-hydroxy-8,12a-dimethyl-N-phenyloctadecahydrochrysene-1-carboxamide]
- IC50 (Table I-4): 0.01 to 0.1 µM

Compound: C[C@@]1(O)CC[C@H]2[C@H](CC[C@@H]3[C@@H]2CC[C@]2(C)C[C@@H](C(=O)Cn4cc(C#N)cn4)CCC[C@@H]32)C1 [I-BC16, 1-(2-((2R,4aS,4bR,6aR,8S,11aS,11bR,13aR)-2-hydroxy-2,6a-dimethyloctadecahydro-1H-cyclohepta[a]phenanthren-8-yl)-2-oxoethyl)-1H-pyrazole-4-carbonitrile]
- IC50 (Table I-6): 0.1 to 1 µM

Compound: CN(C[C@H]1CCC[C@H]2[C@@H]3CC[C@@H]4C[C@](C)(O)CC[C@@H]4[C@H]3CC[C@]12C)S(=O)(=O)c1ccccc1 [I-A8, N-(((1S,4aS,4bR,6aR,8R,10aS,10bR,12aS)-8-hydroxy-8,12a-dimethyloctadecahydrochrysen-l-yl)methyl)-N-methylbenzenesulfonamide]
- IC50 (Table I-4): 0.01 to 0.1 µM

Compound: CC(=O)[C@@H]1CCC[C@H]2[C@@H]3CC[C@@H]4C[C@](C)(O)CC[C@@H]4[C@H]3CC[C@]12C [I-D7a, 1-((1R,4aS,4bR,6aR,8R,10aS,10bR,12aS)-8-hydroxy-8,12a-dimethyloctadecahydrochrysen-1-yl)ethan-1-one]
- IC50 (Table I-4): 0.1 to 1 µM

Compound: COC[C@@]1(OC)CC[C@H]2[C@H](CC[C@@H]3[C@@H]2CC[C@]2(C)[C@@H](O)CCC[C@@H]32)C1 [I-L9, (1S,4aS,4bR,6aR,8R,10aS,10bR,12aS)-8-methoxy-8-(methoxymethyl)-12a-methyloctadecahydrochrysen-l-ol]
- IC50 (Table I-4): 1 to 10 µM

Reference: patent US20220315621A1, “COMPOSITIONS AND METHODS FOR TREATING CNS DISORDERS” (priority 2017, published 2022)
